One assay addresses EGFR L858R (Homo sapiens (Human), UniProt P00533, L858R). Briefly: Biochemical EGFR inhibition assay, EGFR L858R. The following applies: Caliper mobility shift; 1.0 mM ATP or ATP Km; read-out: Enz EGFR_L858R IC50.
A further assay addresses EGFR (d746-750) (Homo sapiens (Human), UniProt P00533, DEL746-750). Put plainly: Biochemical EGFR inhibition assay, EGFR (d746-750). Conditions: Caliper mobility shift; 1.0 mM ATP or ATP Km; read-out: Enz EGFR_Exon19-del746-750 IC50.
The target in assay [1] is pEGFR (Tyr1068) in PC-9 cells (Ex19Del) (Homo sapiens (Human), UniProt P00533, DEL746-750). Put plainly: PC-9 pEGFR AlphaLISA assay. Conditions: 4 hours incubation, p-EGFR (Tyr1068) AlphaLISA, read-out: Ext pEGFR_PC-9 Ex19Del IC50. The assay is classed as cell-based. In a few lines: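 Compounds are added in ten 4-fold dilutions to adherent cells grown in serum-containing (10% FBS) phenol-free DMEM and left for 4 hours at 37° C. Phosphorylated receptor in lysates is quantified by bead-based AlphaLISA. IC50 values derive from inhibition plotted against log dose.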
pEGFR (Tyr1068) in PC-9 cells (Ex19Del), sequence (P00533 other isoform, or with tags, fused parts or gaps del 746-750): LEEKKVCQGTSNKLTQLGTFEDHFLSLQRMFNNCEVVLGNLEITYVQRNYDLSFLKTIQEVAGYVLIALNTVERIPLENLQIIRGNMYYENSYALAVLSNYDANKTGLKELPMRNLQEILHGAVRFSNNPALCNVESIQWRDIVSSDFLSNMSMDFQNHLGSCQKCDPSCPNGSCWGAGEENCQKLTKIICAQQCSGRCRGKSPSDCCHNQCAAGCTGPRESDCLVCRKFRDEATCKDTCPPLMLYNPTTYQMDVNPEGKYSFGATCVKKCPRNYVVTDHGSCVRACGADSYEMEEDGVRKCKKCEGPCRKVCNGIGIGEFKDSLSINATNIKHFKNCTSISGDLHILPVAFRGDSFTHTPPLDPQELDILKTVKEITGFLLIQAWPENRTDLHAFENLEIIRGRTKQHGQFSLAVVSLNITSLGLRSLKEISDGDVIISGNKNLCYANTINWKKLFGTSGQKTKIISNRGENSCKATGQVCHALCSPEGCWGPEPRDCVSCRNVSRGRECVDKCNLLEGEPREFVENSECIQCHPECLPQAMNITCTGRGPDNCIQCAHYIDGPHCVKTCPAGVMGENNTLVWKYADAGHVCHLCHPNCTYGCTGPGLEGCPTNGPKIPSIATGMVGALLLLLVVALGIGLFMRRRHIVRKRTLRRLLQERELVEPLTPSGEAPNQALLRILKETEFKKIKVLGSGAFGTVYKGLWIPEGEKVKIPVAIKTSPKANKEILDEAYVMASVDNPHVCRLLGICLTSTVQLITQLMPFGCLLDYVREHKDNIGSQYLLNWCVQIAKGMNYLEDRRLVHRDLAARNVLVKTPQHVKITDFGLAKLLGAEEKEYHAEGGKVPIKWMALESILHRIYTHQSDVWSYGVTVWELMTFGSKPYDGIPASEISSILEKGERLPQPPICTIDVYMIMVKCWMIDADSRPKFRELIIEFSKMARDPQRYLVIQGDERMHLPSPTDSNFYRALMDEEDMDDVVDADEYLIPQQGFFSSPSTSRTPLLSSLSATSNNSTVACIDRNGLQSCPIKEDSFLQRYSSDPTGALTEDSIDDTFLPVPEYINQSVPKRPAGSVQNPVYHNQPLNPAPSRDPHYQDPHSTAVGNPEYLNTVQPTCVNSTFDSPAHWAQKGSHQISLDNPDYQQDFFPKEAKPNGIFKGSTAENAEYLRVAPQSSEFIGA
(Bead proximity is the source of the signal in Alpha formats.)

Each structure is given as a SMILES string. pIC50: −log10 of the molar value.

EGFR (d746-750), sequence (P00533 other isoform, or with tags, fused parts or gaps del 1-694/del 746-750 limits assumed): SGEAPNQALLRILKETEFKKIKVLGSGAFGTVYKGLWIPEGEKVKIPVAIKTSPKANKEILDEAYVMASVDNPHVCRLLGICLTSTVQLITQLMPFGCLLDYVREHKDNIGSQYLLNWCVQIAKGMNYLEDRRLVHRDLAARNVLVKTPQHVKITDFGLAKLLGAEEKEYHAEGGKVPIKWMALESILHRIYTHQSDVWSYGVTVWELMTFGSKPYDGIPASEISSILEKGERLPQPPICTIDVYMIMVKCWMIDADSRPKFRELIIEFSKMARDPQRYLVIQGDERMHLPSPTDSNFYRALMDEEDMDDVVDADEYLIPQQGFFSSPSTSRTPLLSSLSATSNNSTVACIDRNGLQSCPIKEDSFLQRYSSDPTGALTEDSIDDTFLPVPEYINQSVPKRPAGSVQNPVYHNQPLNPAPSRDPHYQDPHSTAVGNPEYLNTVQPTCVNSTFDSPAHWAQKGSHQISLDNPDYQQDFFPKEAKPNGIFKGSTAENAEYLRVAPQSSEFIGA
EGFR L858R, sequence (P00533 25-1210 L858R): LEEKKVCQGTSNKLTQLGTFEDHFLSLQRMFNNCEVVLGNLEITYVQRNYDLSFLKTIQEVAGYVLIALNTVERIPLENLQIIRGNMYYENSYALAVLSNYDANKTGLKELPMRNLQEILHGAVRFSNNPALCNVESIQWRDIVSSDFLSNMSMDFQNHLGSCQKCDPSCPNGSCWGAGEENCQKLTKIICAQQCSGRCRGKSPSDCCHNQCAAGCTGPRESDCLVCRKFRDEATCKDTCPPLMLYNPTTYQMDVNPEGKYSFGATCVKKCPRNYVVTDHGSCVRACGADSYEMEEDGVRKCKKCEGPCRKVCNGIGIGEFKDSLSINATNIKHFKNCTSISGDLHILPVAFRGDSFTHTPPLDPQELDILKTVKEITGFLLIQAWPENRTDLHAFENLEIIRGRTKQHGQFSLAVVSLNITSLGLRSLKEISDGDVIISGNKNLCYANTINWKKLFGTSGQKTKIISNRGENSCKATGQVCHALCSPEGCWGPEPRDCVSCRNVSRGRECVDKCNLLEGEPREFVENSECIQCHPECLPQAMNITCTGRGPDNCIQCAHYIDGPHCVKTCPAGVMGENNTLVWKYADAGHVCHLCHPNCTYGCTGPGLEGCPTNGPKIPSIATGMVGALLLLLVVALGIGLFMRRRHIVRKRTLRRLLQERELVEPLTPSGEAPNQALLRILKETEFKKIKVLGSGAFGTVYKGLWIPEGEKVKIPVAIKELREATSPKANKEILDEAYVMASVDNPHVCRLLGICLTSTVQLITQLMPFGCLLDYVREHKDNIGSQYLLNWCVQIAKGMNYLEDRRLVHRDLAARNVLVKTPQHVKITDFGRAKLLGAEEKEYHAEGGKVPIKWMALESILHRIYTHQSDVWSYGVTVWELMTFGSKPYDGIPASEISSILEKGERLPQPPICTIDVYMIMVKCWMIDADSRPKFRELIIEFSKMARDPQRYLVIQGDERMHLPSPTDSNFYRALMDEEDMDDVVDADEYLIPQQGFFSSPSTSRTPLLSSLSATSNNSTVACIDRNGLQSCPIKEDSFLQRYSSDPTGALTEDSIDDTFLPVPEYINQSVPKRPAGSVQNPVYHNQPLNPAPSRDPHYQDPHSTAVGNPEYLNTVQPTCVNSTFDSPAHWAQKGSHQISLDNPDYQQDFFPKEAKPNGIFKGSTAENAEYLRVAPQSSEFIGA

One may read the pIC50 as the IC50 on a negative log10 scale, so that one unit is a factor of ten. For the compound `COc1cc2ncnc(-c3cn(C)nc3-c3ccccc3)c2cc1NC(=O)[C@H]1CCN(C)C[C@@H]1F` [Example 285, (3R,4R)-3-fluoro-N-(7-methoxy-4-(1-methyl-3-phenyl-1H-pyrazol-4-yl)quinazolin-6-yl)-1-methylpiperidine-4-carboxamide], the pIC50 at EGFR L858R was 8.89; at EGFR (d746-750), 9.10; in assay [1], 9.30.

As for `COc1cc2ncnc(-c3cn(C)nc3-c3ccccc3)c2cc1NC(=O)[C@@H]1C[C@H]1C(F)(F)F` [Example 286, (1R,2R)—N-(7-methoxy-4-(1-methyl-3-phenyl-1H-pyrazol-4-yl)quinazolin-6-yl)-2-(trifluoromethyl)cyclopropane-1-carboxamide], the figures for the negative-log IC50 (pIC50) (on EGFR L858R; on EGFR (d746-750); in assay [1]) were 8.46, 8.80 and 8.37, respectively.

Take `COc1cc2ncnc(-c3cn(C)nc3-c3ccccc3)c2cc1NC(=O)[C@H]1C[C@@H]1C(F)(F)F` [Example 287, (1S,2S)—N-(7-methoxy-4-(1-methyl-3-phenyl-1H-pyrazol-4-yl)quinazolin-6-yl)-2-(trifluoromethyl)cyclopropane-1-carboxamide]: the pIC50 at EGFR L858R was 8.35; on EGFR (d746-750) it was 8.92; in assay [1] it was 7.89.

Turning to `CCn1cc(-c2ncnc3cc(OC)c(NC(=O)[C@@]45COC[C@@H]4C5)cc23)c(-c2ccccc2)n1` [Example 288, (1R,5R)—N-(4-(1-ethyl-3-phenyl-1H-pyrazol-4-yl)-7-methoxyquinazolin-6-yl)-3-oxabicyclo[3.1.0]hexane-1-carboxamide], the results for the pIC50 (on EGFR L858R; on EGFR (d746-750); in assay [1]) were 8.72, 8.92 and 8.70, respectively.

Consider `CCn1cc(-c2ncnc3cc(OC)c(NC(=O)[C@]45COC[C@H]4C5)cc23)c(-c2ccccc2)n1` [Example 289, (1S,5S)—N-(4-(1-ethyl-3-phenyl-1H-pyrazol-4-yl)-7-methoxyquinazolin-6-yl)-3-oxabicyclo[3.1.0]hexane-1-carboxamide], for which the figures for the pIC50 (on EGFR L858R; at EGFR (d746-750); in assay [1]) were 8.82, 9.10 and 8.82, respectively.

As for `CCOc1cc2ncnc(-c3cn(C)nc3-c3ccccc3)c2cc1NC(=O)[C@@]12COC[C@@H]1C2` [Example 290, (1R,5R)—N-(7-ethoxy-4-(1-methyl-3-phenyl-1H-pyrazol-4-yl)quinazolin-6-yl)-3-oxabicyclo[3.1.0]hexane-1-carboxamide], the pIC50 is 8.89 at EGFR L858R, 9.05 on EGFR (d746-750) and 8.82 in assay [1].

`CCOc1cc2ncnc(-c3cn(C)nc3-c3ccccc3)c2cc1NC(=O)[C@]12COC[C@H]1C2` [Example 291, (1S,5S)—N-(7-ethoxy-4-(1-methyl-3-phenyl-1H-pyrazol-4-yl)quinazolin-6-yl)-3-oxabicyclo[3.1.0]hexane-1-carboxamide]: the pIC50 was 8.80 at EGFR L858R, 9.00 on EGFR (d746-750) and 8.77 in assay [1].

Turning to `COc1cc2ncnc(-c3cn(C)nc3-c3c(F)cccc3F)c2cc1NC(=O)[C@@]12C[C@@H]1CN(C)C2` [Example 292, (1S,5S)—N-(4-(3-(2,6-difluorophenyl)-1-methyl-1H-pyrazol-4-yl)-7-methoxyquinazolin-6-yl)-3-methyl-3-azabicyclo[3.1.0]hexane-1-carboxamide], the negative logarithm of the IC50 (pIC50) was 6.84 at EGFR L858R, 8.49 at EGFR (d746-750) and 8.02 in assay [1].

For the compound `COc1cc2ncnc(-c3cn(C)nc3-c3c(F)cccc3F)c2cc1NC(=O)[C@]12C[C@H]1CN(C)C2` [Example 293, (1R,5R)—N-(4-(3-(2,6-difluorophenyl)-1-methyl-1H-pyrazol-4-yl)-7-methoxyquinazolin-6-yl)-3-methyl-3-azabicyclo[3.1.0]hexane-1-carboxamide], the negative logarithm of the IC50 (pIC50) on EGFR L858R is 6.56; on EGFR (d746-750), 8.47; in assay [1], 8.05.

`COc1cc2ncnc(-c3cn(C)nc3-c3ccccc3)c2cc1NC(=O)c1cnn(C)c1` [Example 294, N-(7-methoxy-4-(1-methyl-3-phenyl-1H-pyrazol-4-yl)quinazolin-6-yl)-1-methyl-1H-pyrazole-4-carboxamide]: the negative logarithm of the IC50 (pIC50) on EGFR L858R was 9.00; at EGFR (d746-750), 9.30; in assay [1] it was 8.96.

For `COc1cc2ncnc(-c3cn(C)nc3-c3ccccc3)c2c(F)c1NC(=O)C1CCC1` [Example 295, N-(5-fluoro-7-methoxy-4-(1-methyl-3-phenyl-1H-pyrazol-4-yl)quinazolin-6-yl)cyclobutanecarboxamide], the pIC50 is 8.34 on EGFR L858R, 8.68 on EGFR (d746-750) and 8.28 in assay [1].

With `CCOc1cc2ncnc(-c3cn(C)nc3-c3ccccc3)c2cc1NC(=O)c1cccnc1` [Example 296, N-(7-ethoxy-4-(1-methyl-3-phenyl-1H-pyrazol-4-yl)quinazolin-6-yl)nicotinamide], the results for the negative-log IC50 (pIC50) (at EGFR L858R; at EGFR (d746-750); in assay [1]) were 8.85, 9.15 and 8.96, respectively.

Regarding `CCOc1cc2ncnc(-c3cn(C)nc3-c3ccccc3)c2cc1NC(=O)c1ccc(C2CC2)nc1` [Example 297, 6-cyclopropyl-N-(7-ethoxy-4-(1-methyl-3-phenyl-1H-pyrazol-4-yl)quinazolin-6-yl)nicotinamide], the values for the negative logarithm of the IC50 (pIC50) (at EGFR L858R; on EGFR (d746-750); in assay [1]) were 9.05, 9.30 and 9.05, respectively.

Turning to `CCOc1cc2ncnc(-c3cn(C)nc3-c3ccccc3)c2cc1NC(=O)c1cnn(CC)c1` [Example 298, N-(7-ethoxy-4-(1-methyl-3-phenyl-1H-pyrazol-4-yl)quinazolin-6-yl)-1-ethyl-1H-pyrazole-4-carboxamide], the values for the negative-log IC50 (pIC50) (on EGFR L858R; at EGFR (d746-750); in assay [1]) were 8.80, 9.05 and 9.00, respectively.

Consider `CN(C)CCOc1cc2ncnc(-c3cn(C)nc3-c3ccccc3)c2cc1NC(=O)C12CC(C1)C2` [Example 299, N-(7-(2-(dimethylamino)ethoxy)-4-(1-methyl-3-phenyl-1H-pyrazol-4-yl)quinazolin-6-yl)bicyclo[1.1.1]pentane-1-carboxamide], for which the results for the pIC50 (at EGFR L858R; on EGFR (d746-750); in assay [1]) were 7.82, 8.27 and 8.15, respectively.

As for `CN(C)CCOc1cc2ncnc(-c3cn(C)nc3-c3ccccc3)c2cc1NC(=O)c1ccccc1F` [Example 300, N-(7-(2-(dimethylamino)ethoxy)-4-(1-methyl-3-phenyl-1H-pyrazol-4-yl)quinazolin-6-yl)-2-fluorobenzamide], the negative-log IC50 (pIC50) at EGFR L858R was 8.30; on EGFR (d746-750) it was 8.77; in assay [1], 8.46.

Consider `CCCn1cc(-c2ncnc3cc(OC)c(NC(=O)c4ccc(C5CC5)nc4)cc23)c(-c2ccccc2)n1` [Example 301, 6-cyclopropyl-N-(7-methoxy-4-(3-phenyl-1-propyl-1H-pyrazol-4-yl)quinazolin-6-yl)nicotinamide], for which the pIC50 at EGFR L858R was 8.57; on EGFR (d746-750), 8.70; in assay [1] it was 9.10.

Consider `CCn1cc(-c2ncnc3cc(OC(F)F)c(NC(=O)C4CC4)cc23)c(-c2ccccc2)n1` [Example 302, N-(7-(difluoromethoxy)-4-(1-ethyl-3-phenyl-1H-pyrazol-4-yl)quinazolin-6-yl)cyclopropanecarboxamide], for which the values for the negative logarithm of the IC50 (pIC50) (on EGFR L858R; at EGFR (d746-750); in assay [1]) were 8.85, 9.15 and 8.80, respectively.

On to `Cc1ncsc1C(=O)Nc1cc2c(-c3cn(C)nc3-c3ccccc3)ncnc2cc1OCCN(C)C` [Example 303, N-(7-(2-(dimethylamino)ethoxy)-4-(1-methyl-3-phenyl-1H-pyrazol-4-yl)quinazolin-6-yl)-4-methylthiazole-5-carboxamide], for which the values for the pIC50 (on EGFR L858R; at EGFR (d746-750); in assay [1]) were 7.96, 8.54 and 8.06, respectively.

With `COc1cc2ncnc(-c3cn(C)nc3-c3ccc(F)cc3)c2cc1NC(=O)c1scnc1C` [Example 304, N-(4-(3-(4-fluorophenyl)-1-methyl-1H-pyrazol-4-yl)-7-methoxyquinazolin-6-yl)-4-methylthiazole-5-carboxamide], the figures for the pIC50 (at EGFR L858R; on EGFR (d746-750); in assay [1]) were 8.74, 9.00 and 8.92, respectively.

For the compound `COc1cc2ncnc(-c3cn(C)nc3-c3ccc(F)cc3)c2cc1NC(=O)c1cn(C)nc1C` [Example 305, N-(4-(3-(4-fluorophenyl)-1-methyl-1H-pyrazol-4-yl)-7-methoxyquinazolin-6-yl)-1,3-dimethyl-1H-pyrazole-4-carboxamide], the results for the pIC50 (at EGFR L858R; at EGFR (d746-750); in assay [1]) were 8.29, 8.48 and 8.46, respectively.

Turning to `CCOc1cc2ncnc(-c3cn(C)nc3-c3ccccc3)c2cc1NC(=O)C1CC1` [Example 306, N-(7-ethoxy-4-(1-methyl-3-phenyl-1H-pyrazol-4-yl)quinazolin-6-yl)cyclopropanecarboxamide], the pIC50 at EGFR L858R was 8.85; on EGFR (d746-750), 8.96; in assay [1] it was 9.22.

As for `CCn1cc(-c2ncnc3cc(OC)c(NC(=O)c4cnn(C(F)(F)F)c4)cc23)c(-c2ccccc2)n1` [Example 307, N-(4-(1-ethyl-3-phenyl-1H-pyrazol-4-yl)-7-methoxyquinazolin-6-yl)-1-(trifluoromethyl)-1H-pyrazole-4-carboxamide], the pIC50 was 8.77 at EGFR L858R, 9.05 on EGFR (d746-750) and 8.85 in assay [1].

On to `COc1cc2ncnc(-c3cn(CCN(C)C)nc3-c3ccccc3)c2cc1NC(=O)C12CC(C1)C2` [Example 308, N-(4-(1-(2-(dimethylamino)ethyl)-3-phenyl-1H-pyrazol-4-yl)-7-methoxyquinazolin-6-yl)bicyclo[1.1.1]pentane-1-carboxamide], for which the results for the negative logarithm of the IC50 (pIC50) (at EGFR L858R; on EGFR (d746-750); in assay [1]) were 8.14, 8.46 and 8.21, respectively.

For the origin of these results see US20250236608A1, “EGFR INHIBITORS” (Blueprint Medicines Corporation, priority 2022, published 2025).
